Measurements taken from patent US10919916B2, “Boron-containing small molecules” (Bill & Melinda Gates Foundation, priority 2016, dated 2021).
≈ marks a conversion by molar mass, not a printed value. Structures can show the parent of a compound that is named as a salt. Where two headings read alike, the source gives them in different places.

Key:
[1] = test system: Streptococcus pneumoniae (ATCC 49619); assay: Antibacterial MIC assay (microbroth dilution, CLSI); format: cell-based
Description: (§1) All MIC testing of bacteria followed the Clinical and Laboratory Standards Institute (CLSI) guidelines for antimicrobial testing of aerobic bacteria (Methods for Dilution Antimicrobial Susceptibility Tests for Bacteria that Grow Aerobically; Approved Standard—Tenth Edition, M07-A10; Performance Standards for Antimicrobial Susceptibility Testing; Twenty-fifth Informational Supplement, M100-S25).
Briefly, the microbroth dilution MIC method was used to quantitatively measure the in vitro antibacterial activity of a compound against a given bacterial isolate. […] Bacteria were grown in cation-adjusted Mueller-Hinton broth, with additions as required per species growth requirements (e.g. 3% lysed horse blood for fastidious organisms such as S. pneumoniae). A direct colony suspension in saline was prepared from colonies on an overnight agar plate to achieve a turbidity equivalent to 0.5 McFarland standard, which was subsequently diluted into the assay plate to achieve 5×10^5 CFU/mL. Assays plates were prepared by 2-fold dilution of compound across the plate and included a positive growth control.

[2] = test system: Staphylococcus aureus, MRSA (ATCC 33591); assay: as above; format: cell-based; settings: read-out: MIC Staphylococcus aureus, MRSA (ATCC 33591)
Description: as §1
Briefly, the microbroth dilution MIC method was used to quantitatively measure the in vitro antibacterial activity of a compound against a given bacterial isolate. The following bacterial strains were evaluated: Staphylococcus aureus, MRSA (ATCC 33591) and Streptococcus pneumoniae (ATCC 49619). Bacteria were grown in cation-adjusted Mueller-Hinton broth, with additions as required per species growth requirements (e.g. 3% lysed horse blood for fastidious organisms such as S. pneumoniae). A direct colony suspension in saline was prepared from colonies on an overnight agar plate to achieve a turbidity equivalent to 0.5 McFarland standard, which was subsequently diluted into the assay plate to achieve 5×10^5 CFU/mL. Assays plates were prepared by 2-fold dilution of compound across the plate and included a positive growth control.

[3] = ATCC49619, read-out: MIC Streptococcus pneumoniae (ATCC 49619)
[4] = ATCC49619, microbroth dilution, 3% lysed horse blood, 35° C. for 16-20 hours, read-out: MIC Streptococcus pneumoniae (ATCC 49619)
[5] = microbroth dilution, cation-adjusted Mueller-Hinton broth, 35° C. for 16-20 hours

SMILES	MIC [1, 3] [µg/mL]	MIC [2] [µg/mL]	MIC [1, 4] [µg/mL]	MIC [2, 5] [µg/mL]
C=C[C@]1(C)C[C@@H](OC(=O)COc2cc3c(cc2F)B(O)OC3)[C@]2(C)[C@H](C)CC[C@]3(CCC(=O)[C@H]32)[C@@H](C)[C@@H]1O [Compound 34, (3aR,4R,5R,7S,8S,9R,9aS,12R)-8-hydroxy-4,7,9,12-tetramethyl-3-oxo-7-vinyldecahydro-4,9a-propanocyclopenta[8]annulen-5-yl 2-((6-fluoro-1-hydroxy-1,3-dihydrobenzo[c][1,2]oxaborol-5-yl)oxy)acetate]	0.5 to 2 (≈ 0.946 to 3.78 µM)	< 0.25		
C=C[C@]1(C)C[C@@H](OC(=O)COc2cc(CN)c3c(c2Cl)B(O)OC3)[C@]2(C)[C@H](C)CC[C@]3(CCC(=O)[C@H]32)[C@@H](C)[C@@H]1O [Compound 8, (3aR,4R,5R,7S,8S,9R,9aS,12R)-8-hydroxy-4,7,9,12-tetramethyl-3-oxo-7-vinyldecahydro-4,9a-propanocyclopenta[8]annulen-5-yl 2-((4-(aminomethyl)-7-chloro-1-hydroxy-1,3-dihydrobenzo[c][1,2]oxaborol-6-yl)oxy)acetate]	0.5 to 2 (≈ 0.871 to 3.48 µM)	< 0.25		
C=C[C@]1(C)C[C@@H](OC(=O)COc2cc3c(cc2C)COB3O)[C@]2(C)[C@H](C)CC[C@]3(CCC(=O)[C@H]32)[C@@H](C)[C@@H]1O [Compound 10, (3aR,4R,5R,7S,8S,9R,9aS,12R)-8-hydroxy-4,7,9,12-tetramethyl-3-oxo-7-vinyldecahydro-4,9a-propanocyclopenta[8]annulen-5-yl 2-((1-hydroxy-5-methyl-1,3-dihydrobenzo[c][1,2]oxaborol-6-yl)oxy)acetate]			< 0.25	< 0.25
C=C[C@]1(C)C[C@@H](OC(=O)COc2ccc3c(c2)NB(C)C=C3)[C@]2(C)[C@H](C)CC[C@]3(CCC(=O)[C@H]32)[C@@H](C)[C@@H]1O [Compound 104, (3aR,4R,5R,7S,8S,9R,9aS,12R)-8-hydroxy-4,7,9,12-tetramethyl-3-oxo-7-vinyldecahydro-4,9a-propanocyclopenta[8]annulen-5-yl 2-((2-methyl-1,2-dihydrobenzo[e][1,2]azaborinin-7-yl)oxy)acetate]			0.5 to 2 (≈ 0.962 to 3.85 µM)	< 0.25
C=C[C@]1(C)C[C@@H](OC(=O)CNc2cc3c(cc2CN)COB3O)[C@]2(C)[C@H](C)CC[C@]3(CCC(=O)[C@H]32)[C@@H](C)[C@@H]1O [Compound 47, (3aR,4R,5R,7S,8S,9R,9aS,12R)-8-hydroxy-4,7,9,12-tetramethyl-3-oxo-7-vinyldecahydro-4,9a-propanocyclopenta[8]annulen-5-yl (5-(aminomethyl)-1-hydroxy-1,3-dihydrobenzo[c][1,2]oxaborol-6-yl)glycinate]			4 to 32 (≈ 7.43 to 59.4 µM)	0.5 to 2 (≈ 0.929 to 3.71 µM)
C=C[C@]1(C)C[C@@H](OC(=O)COc2ccc3c(c2Cl)B(O)OC3CN)[C@]2(C)[C@H](C)CC[C@]3(CCC(=O)[C@H]32)[C@@H](C)[C@@H]1O (stereo partly drawn) [Compound 31, (3aR,4R,5R,7S,8S,9R,9aS,12R)-8-hydroxy-4,7,9,12-tetramethyl-3-oxo-7-vinyldecahydro-4,9a-propanocyclopenta[8]annulen-5-yl 2-((3-(aminomethyl)-7-chloro-1-hydroxy-1,3-dihydrobenzo[c][1,2]oxaborol-6-yl)oxy)acetate Hydrochloride]	0.5 to 2	0.5 to 2		
C=C[C@]1(C)C[C@@H](OC(=O)NCc2ccc3c(c2F)B(O)OC3)[C@]2(C)[C@H](C)CC[C@]3(CCC(=O)[C@H]32)[C@@H](C)[C@@H]1O [Compound 57, (3aR,4R,5R,7S,8S,9R,9aS,12R)-8-hydroxy-4,7,9,12-tetramethyl-3-oxo-7-vinyldecahydro-4,9a-propanocyclopenta[8]annulen-5-yl ((7-fluoro-1-hydroxy-1,3-dihydrobenzo[c][1,2]oxaborol-6-yl)methyl)carbamate]	0.5 to 2 (≈ 0.948 to 3.79 µM)	< 0.25		
C=C[C@]1(C)C[C@@H](OC(=O)COc2ccc3c(c2)B(O)OC3CN)[C@]2(C)[C@H](C)CC[C@]3(CCC(=O)[C@H]32)[C@@H](C)[C@@H]1O.Cl (stereo partly drawn) [Compound 21, (3aR,4R,5R,7S,8S,9R,9aS,12R)-8-hydroxy-4,7,9,12-tetramethyl-3-oxo-7-vinyldecahydro-4,9a-propanocyclopenta[8]annulen-5-yl 2-((3-(aminomethyl)-1-hydroxy-1,3-dihydrobenzo[c][1,2]oxaborol-6-yl)oxy)acetate Hydrochloride]	< 0.25			0.5 to 2
C=C[C@]1(C)C[C@@H](OC(=O)COc2ccc3c(c2)B(O)N(C(=O)OC(C)(C)C)N=C3)[C@]2(C)[C@H](C)CC[C@]3(CCC(=O)[C@H]32)[C@@H](C)[C@@H]1O [Compound 71, tert-butyl 1-hydroxy-7-(2-(((3aR,4R,5R,7S,8S,9R,9aS,12R)-8-hydroxy-4,7,9,12-tetramethyl-3-oxo-7-vinyldecahydro-4,9a-propanocyclopenta[8]annulen-5-yl)oxy)-2-oxoethoxy)benzo[d][1,2,3]diazaborinine-2(1H)-carboxylate]	< 0.25	< 0.25		
C=C[C@]1(C)C[C@@H](OC(=O)COc2ccc3c(c2F)B(O)N(C)N=C3)[C@]2(C)[C@H](C)CC[C@]3(CCC(=O)[C@H]32)[C@@H](C)[C@@H]1O [Compound 85, (3aR,4R,5R,7S,8S,9R,9aS,12R)-8-hydroxy-4,7,9,12-tetramethyl-3-oxo-7-vinyldecahydro-4,9a-propanocyclopenta[8]annulen-5-yl 2-((8-fluoro-1-hydroxy-2-methyl-1,2-dihydrobenzo[d][1,2,3]diazaborinin-7-yl)oxy)acetate]	< 0.25	< 0.25		
C=C[C@]1(C)C[C@@H](OC(=O)COc2ccc3c(c2F)B(O)OC3CN)[C@]2(C)[C@H](C)CC[C@]3(CCC(=O)[C@H]32)[C@@H](C)[C@@H]1O.Cl (stereo partly drawn) [Compound 29, (3aR,4R,5R,7S,8S,9R,9aS,12R)-8-hydroxy-4,7,9,12-tetramethyl-3-oxo-7-vinyldecahydro-4,9a-propanocyclopenta[8]annulen-5-yl 2-((3-(aminomethyl)-7-fluoro-1-hydroxy-1,3-dihydrobenzo[c][1,2]oxaborol-6-yl)oxy)acetate Hydrochloride]			0.5 to 2	0.5 to 2
C=C[C@]1(C)C[C@@H](OC(=O)COc2cc(F)c3c(c2)COB3O)[C@]2(C)[C@H](C)CC[C@]3(CCC(=O)[C@H]32)[C@@H](C)[C@@H]1O [Compound 33, (3aR,4R,5R,7S,8S,9R,9aS,12R)-8-hydroxy-4,7,9,12-tetramethyl-3-oxo-7-vinyldecahydro-4,9a-propanocyclopenta[8]annulen-5-yl 2-((7-fluoro-1-hydroxy-1,3-dihydrobenzo[c][1,2]oxaborol-5-yl)oxy)acetate]	0.5 to 2 (≈ 0.946 to 3.78 µM)	< 0.25		
C=C[C@]1(C)C[C@@H](OC(=O)COc2ccc3c(c2)B(O)ON=C3)[C@]2(C)[C@H](C)CC[C@]3(CCC(=O)[C@H]32)[C@@H](C)[C@@H]1O [Compound 96, (3aR,4R,5R,7S,8S,9R,9aS,12R)-8-hydroxy-4,7,9,12-tetramethyl-3-oxo-7-vinyldecahydro-4,9a-propanocyclopenta[8]annulen-5-yl 2-((1-hydroxy-1H-benzo[d][1,2,6]oxazaborinin-7-yl)oxy)acetate]	0.5 to 2 (≈ 0.955 to 3.82 µM)	< 0.25		
C=C[C@]1(C)C[C@@H](OC(=O)CNc2cc3c(cc2F)COB3O)[C@]2(C)[C@H](C)CC[C@]3(CCC(=O)[C@H]32)[C@@H](C)[C@@H]1O [Compound 46, (3aR,4R,5R,7S,8S,9R,9aS,12R)-8-hydroxy-4,7,9,12-tetramethyl-3-oxo-7-vinyldecahydro-4,9a-propanocyclopenta[8]annulen-5-yl (5-fluoro-1-hydroxy-1,3-dihydrobenzo[c][1,2]oxaborol-6-yl)glycinate]	0.5 to 2 (≈ 0.948 to 3.79 µM)	< 0.25		
C=C[C@]1(C)C[C@@H](OC(=O)COC(=O)Nc2ccc3c(c2F)B(O)OC3)[C@]2(C)[C@H](C)CC[C@]3(CCC(=O)[C@H]32)[C@@H](C)[C@@H]1O [Compound 55, (3aR,4R,5R,7S,8S,9R,9aS,12R)-8-hydroxy-4,7,9,12-tetramethyl-3-oxo-7-vinyldecahydro-4,9a-propanocyclopenta[8]annulen-5-yl 2-(((7-fluoro-1-hydroxy-1,3-dihydrobenzo[c][1,2]oxaborol-6-yl)carbamoyl)oxy)acetate]	0.5 to 2 (≈ 0.875 to 3.5 µM)	0.5 to 2 (≈ 0.875 to 3.5 µM)		
C=C[C@]1(C)C[C@@H](OC(=O)COc2cc(CN)c3c(c2)B(O)OC3)[C@]2(C)[C@H](C)CC[C@]3(CCC(=O)[C@H]32)[C@@H](C)[C@@H]1O.Cl [Compound 12, (3aR,4R,5R,7S,8S,9R,9aS,12R)-8-hydroxy-4,7,9,12-tetramethyl-3-oxo-7-vinyldecahydro-4,9a-propanocyclopenta[8]annulen-5-yl 2-((4-(aminomethyl)-1-hydroxy-1,3-dihydrobenzo[c][1,2]oxaborol-6-yl)oxy)acetate Hydrochloride]			< 0.25	< 0.25
